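Grown in 96-well plates, cells were treated for 48 hours with each compound at five concentrations. Insufficient inhibition: endpoint recorded as highest concentration tested. GI50: concentration for 50% inhibition of growth.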 The source made the active and inactive calls. Rule as the data show it: active = GI50 up to about 1.1 µM and inactive = higher.
Columns and labels:
Experiment in all cases: NCI anticancer screen, dose series, 48 h
[1] = system: NCI-H460
[2] = system: NCI-H23
[3] = system: OVCAR-4
[4] = system: LOX IMVI
[5] = system: SF-268
[6] = system: MOLT-4
[7] = system: SF-295
[8] = system: COLO 205
[9] = system: HCT-116
[10] = system: CAKI-1
[11] = system: LXFL 529
[12] = system: HCT-15
[13] = system: A549
[14] = system: SW-620
[15] = system: OVCAR-5
[16] = system: 786-0
[17] = system: DMS-273
[18] = system: RXF 393
[19] = system: DU-145
[20] = system: PC-3

Structure (SMILES) | GI50 [1] | GI50 [2] | GI50 [3] | GI50 [4] | GI50 [5] | GI50 [6] | GI50 [7] | GI50 [8] | GI50 [9] | GI50 [10] | GI50 [11] | GI50 [12] [µM] | GI50 [13] | GI50 [14] | GI50 [15] | GI50 [16] | GI50 [17] | GI50 [18] | GI50 [19] | GI50 [20]
COc1ccc(-c2cn3ccsc3n2)cc1 | 87.7 µM (inactive) | > 100 µM (inactive) | > 100 µM (inactive) | 36.2 µM (inactive) | > 100 µM (inactive) | 97.7 µM (inactive) | > 100 µM (inactive) | 33.1 µM (inactive) | 45.4 µM (inactive) | > 100 µM (inactive) | > 100 µM (inactive) | 39.6 | > 100 µM (inactive) | 11.2 µM (inactive) | > 100 µM (inactive) | 35.6 µM (inactive) | > 100 µM (inactive) | – | – | –
O=C(CC(=O)Nc1ccccc1O)Nc1ccccc1O | 18.3 µM (inactive) | 22.2 µM (inactive) | 34.3 µM (inactive) | – | 26.9 µM (inactive) | 5.62 µM (inactive) | 39 µM (inactive) | 18.5 µM (inactive) | 13.2 µM (inactive) | 68.1 µM (inactive) | 8.91 µM (inactive) | 5.68 | 29.9 µM (inactive) | 4.6 µM (inactive) | 59.4 µM (inactive) | 19.6 µM (inactive) | 25.9 µM (inactive) | – | – | –
O=[N+]([O-])c1ccccc1C1N2CCCCC2[C@@H]2c3[nH]c4ccccc4c3CCN12 (stereo partly specified) | 17.7 µM (inactive) | 14.4 µM (inactive) | 17.3 µM (inactive) | – | 11.6 µM (inactive) | 5.78 µM (inactive) | 13.8 µM (inactive) | 13.2 µM (inactive) | – | 14 µM (inactive) | 10.8 µM (inactive) | 10.9 | 9.84 µM (inactive) | 11.4 µM (inactive) | 19.1 µM (inactive) | 16.1 µM (inactive) | 10.9 µM (inactive) | 12.6 µM (inactive) | – | –
CC(C)OCN1COCN/C1=N/C#N | > 100 µM (inactive) | > 100 µM (inactive) | > 100 µM (inactive) | – | > 100 µM (inactive) | > 100 µM (inactive) | > 100 µM (inactive) | 20.8 µM (inactive) | > 100 µM (inactive) | > 100 µM (inactive) | > 100 µM (inactive) | 17.7 | > 100 µM (inactive) | 18.3 µM (inactive) | > 100 µM (inactive) | 98.6 µM (inactive) | 37.5 µM (inactive) | > 100 µM (inactive) | – | –
CCCCOCN/C(N)=N/C#N | > 100 µM (inactive) | > 100 µM (inactive) | 64.1 µM (inactive) | 21.5 µM (inactive) | > 100 µM (inactive) | > 100 µM (inactive) | > 100 µM (inactive) | 38.3 µM (inactive) | > 100 µM (inactive) | > 100 µM (inactive) | > 100 µM (inactive) | 21.9 | > 100 µM (inactive) | 18.2 µM (inactive) | > 100 µM (inactive) | 33.9 µM (inactive) | 68.7 µM (inactive) | > 100 µM (inactive) | – | –
NC(=O)C#CC#CC#CCO | 5.96 µM (inactive) | 2.12 µM (inactive) | 1.83 µM (inactive) | 2.09 µM (inactive) | 2.21 µM (inactive) | 0.998 µM (active) | 3.94 µM (inactive) | 1.23 µM (inactive) | 1.28 µM (inactive) | 1.92 µM (inactive) | 1.14 µM (inactive) | 1.8 | 4.39 µM (inactive) | 1.51 µM (inactive) | 18.9 µM (inactive) | 1.59 µM (inactive) | 1.98 µM (inactive) | 2.09 µM (inactive) | – | –
COC(=O)CCC(=O)C(C#N)c1ccc(Cl)cc1Cl (stereo unspecified) | – | > 100 µM (inactive) | – | > 100 µM (inactive) | > 100 µM (inactive) | > 100 µM (inactive) | > 100 µM (inactive) | – | > 100 µM (inactive) | > 100 µM (inactive) | > 100 µM (inactive) | > 100 | > 100 µM (inactive) | > 100 µM (inactive) | – | > 100 µM (inactive) | > 100 µM (inactive) | – | – | –
CC(C)OP(=O)(OC(C)C)/C(N)=N/Nc1ccc([N+](=O)[O-])cc1 | 41.7 µM (inactive) | 63 µM (inactive) | > 100 µM (inactive) | > 100 µM (inactive) | > 100 µM (inactive) | 52.1 µM (inactive) | – | > 100 µM (inactive) | 86.3 µM (inactive) | > 100 µM (inactive) | 66.2 µM (inactive) | > 100 | 76.2 µM (inactive) | > 100 µM (inactive) | > 100 µM (inactive) | > 100 µM (inactive) | > 100 µM (inactive) | – | – | –
CN(C)/C=N\c1nc(=O)n(C2CCC(CO)O2)cc1F (stereo unspecified) | > 100 µM (inactive) | > 100 µM (inactive) | > 100 µM (inactive) | > 100 µM (inactive) | > 100 µM (inactive) | > 100 µM (inactive) | > 100 µM (inactive) | > 100 µM (inactive) | – | > 100 µM (inactive) | > 100 µM (inactive) | > 100 | > 100 µM (inactive) | > 100 µM (inactive) | > 100 µM (inactive) | > 100 µM (inactive) | > 100 µM (inactive) | > 100 µM (inactive) | – | –
O=C(/C=C(\O)C(=O)O)/C=C(\O)c1ccccc1 | > 4.65 µM (inactive) | – | > 4.65 µM (inactive) | > 4.65 µM (inactive) | > 4.65 µM (inactive) | > 100 µM (inactive) | > 4.65 µM (inactive) | > 4.65 µM (inactive) | > 4.65 µM (inactive) | > 4.65 µM (inactive) | > 4.65 µM (inactive) | > 4.65 | > 4.65 µM (inactive) | > 4.65 µM (inactive) | – | > 100 µM (inactive) | > 4.65 µM (inactive) | > 100 µM (inactive) | – | –
COC(=O)C(C(=O)C(=O)Nc1ccc([N+](=O)[O-])cc1)c1nc2cc(C)c(C)cc2nc1O (stereo unspecified) | > 100 µM (inactive) | > 100 µM (inactive) | > 100 µM (inactive) | > 100 µM (inactive) | > 100 µM (inactive) | > 100 µM (inactive) | > 100 µM (inactive) | > 100 µM (inactive) | > 100 µM (inactive) | > 100 µM (inactive) | > 100 µM (inactive) | > 100 | > 100 µM (inactive) | > 100 µM (inactive) | > 100 µM (inactive) | > 100 µM (inactive) | – | > 100 µM (inactive) | – | –
CC[n+]1c(/C=C/c2ccc(N(CCCl)CCCl)cc2)ccc2cc(NC(=O)/C=C/c3ccccc3)ccc21 | 0.245 µM (active) | 0.482 µM (active) | 0.254 µM (active) | 0.329 µM (active) | 0.393 µM (active) | 0.286 µM (active) | 0.45 µM (active) | 0.104 µM (active) | 0.317 µM (active) | 2.13 µM (inactive) | 0.357 µM (active) | 14.2 | 0.279 µM (active) | 0.208 µM (active) | 0.748 µM (active) | 0.336 µM (active) | – | 0.315 µM (active) | 0.288 µM (active) | 0.402 µM (active)
c1ccc(C2N3CCCCC3[C@@H]3c4[nH]c5ccccc5c4CCN23)nc1 (stereo partly specified) | > 100 µM (inactive) | > 100 µM (inactive) | > 100 µM (inactive) | – | 47.9 µM (inactive) | > 100 µM (inactive) | > 100 µM (inactive) | – | > 100 µM (inactive) | > 100 µM (inactive) | > 100 µM (inactive) | > 100 | > 100 µM (inactive) | > 100 µM (inactive) | > 100 µM (inactive) | > 100 µM (inactive) | > 100 µM (inactive) | 33.3 µM (inactive) | – | –
O=[N+]([O-])c1cccc(C(O)/C(=N/Nc2ccccc2)C2Nc3ccc([N+](=O)[O-])cc3N=C2O)c1 (stereo unspecified) | 42.9 µM (inactive) | > 100 µM (inactive) | 78.5 µM (inactive) | > 100 µM (inactive) | 93.5 µM (inactive) | 27.2 µM (inactive) | 60.4 µM (inactive) | 61.1 µM (inactive) | > 100 µM (inactive) | – | 37.6 µM (inactive) | 14.4 | 41.2 µM (inactive) | 49.3 µM (inactive) | 49.3 µM (inactive) | > 100 µM (inactive) | 36.8 µM (inactive) | > 100 µM (inactive) | – | –
CCOC(=O)[C@@]12C(C)=CC(=O)O[C@]1(C)C1C(=O)NC(=O)C12 (stereo partly specified) | > 100 µM (inactive) | > 100 µM (inactive) | > 100 µM (inactive) | > 100 µM (inactive) | – | > 100 µM (inactive) | > 100 µM (inactive) | > 100 µM (inactive) | > 100 µM (inactive) | – | > 100 µM (inactive) | – | > 100 µM (inactive) | > 100 µM (inactive) | – | > 100 µM (inactive) | > 100 µM (inactive) | > 100 µM (inactive) | – | –
O=[N+]([O-])c1ccc(C2=Nc3ccccc3[S+]([O-])C(c3ccccc3)C2)cc1 (stereo unspecified) | 24.5 µM (inactive) | 18.2 µM (inactive) | 20.1 µM (inactive) | 15.2 µM (inactive) | 27.9 µM (inactive) | 16.6 µM (inactive) | 31.3 µM (inactive) | 19.7 µM (inactive) | – | 18.8 µM (inactive) | 13.5 µM (inactive) | 27 | 27.9 µM (inactive) | 23.1 µM (inactive) | 25.8 µM (inactive) | 17.5 µM (inactive) | 22.6 µM (inactive) | 14.9 µM (inactive) | – | –
[N-]=[N+]=NC1C2CC3C4CC5CC3[C@H](C2)C(C5)C41 (stereo partly specified) | > 100 µM (inactive) | > 100 µM (inactive) | > 100 µM (inactive) | > 100 µM (inactive) | > 100 µM (inactive) | > 100 µM (inactive) | > 100 µM (inactive) | > 100 µM (inactive) | > 100 µM (inactive) | > 100 µM (inactive) | > 100 µM (inactive) | – | > 100 µM (inactive) | > 100 µM (inactive) | > 100 µM (inactive) | > 100 µM (inactive) | > 100 µM (inactive) | > 100 µM (inactive) | – | –
